Source: the NIST ThermoML archive (doi:10.1021/je201130h)
± gives the expanded uncertainty stated by the source.

settings: 298.15 K; 101.33 kPa; Liquid; Vibrating tube method

| Structure (SMILES) | mass density [kg/m3] |
| --- | --- |
| Cc1ccccc1C [1,2-dimethylbenzene] | 875.52 ± 0.23 |
| Cc1ccc(C)cc1 [1,4-dimethylbenzene] | 856.65 ± 0.23 |
| CC(=O)CC(C)C [4-methylpentan-2-one] | 798.09 ± 0.24 |
| C=CC(=O)O [propenoic acid] | 1059.17 ± 0.32 |
| Cc1ccccc1 [toluene] | 862.34 ± 0.23 |
